In PMC5742776 (Foods, 2017):

Experiments:
Assay type in all cases: biochemical
[1] = system: angiotensin-I-converting enzyme (ACE-I; EC 3.4.15.1); assay: ACE-I inhibition assay (ACE Kit-WST); conditions: 1 mg/mL, 37 °C, 1 h, absorbance 450 nm
Experimental: Protein isolates from all seven oat varieties and selected synthesised peptides were tested in vitro for ACE-I inhibition. The bioassay (ACE Kit—WST, Dojindo Laboratories, Kumamoto, Japan) was carried out according to the manufacturer’s instructions. First, 20 μL of each sample inhibitor at a concentration of 1 mg/mL ddH2O was added to 20 μL substrate and 20 μL enzyme working solution in triplicate. Samples were incubated at 37 °C for 1 h. Each well then had 200 μL indicator working solution added, followed by a further incubation at room temperature for 10 min. Absorbance at 450 nm was read using a FLUOstar Omega microplate reader (BMG LABTECH GmbH, Offenburg, Germany). The percentage inhibition was calculated using the following equation:% ACE-I inhibition = 100% Initial activity − Inhibitor × 100/100% Initial activity(2)

[2] = system: dipeptidyl peptidase-IV (DPP-IV; EC 3.4.14.5); conditions: synthesised peptides, 1 mg/mL; 10 μL sample at 1 mg/mL assay buffer + 30 μL buffer, 10 μL DPP-IV, 50 μL substrate; 37 °C, 30 min; fluorescence 355/460 nm; mean of triplicate samples
Experimental: Protein isolates from all seven oat varieties and selected synthesised peptides were tested in vitro for DPP-IV inhibition. […] First, 10 μL of each sample inhibitor at a concentration of 1 mg/mL assay buffer was added to 30 μL diluted assay buffer, 10 μL diluted DPP-IV, and 50 μL substrate solution, in triplicate. Samples were incubated at 37 °C for 30 min. Fluorescence was read with excitation wavelengths of 355 nm and emission wavelengths of 460 nm using a FLUOstar Omega microplate reader (BMG LABTECH GmbH, Offenburg, Germany). The percentage inhibition was calculated using the following equation:% DPP-IV inhibition = 100% Initial activity − Inhibitor × 100/100% Initial activity (3)

[3] = system: renin (EC 3.4.23.15); assay: Renin Inhibition Screening Assay; conditions: synthesised peptides, 1 mg/mL; 10 μL sample at 1 mg/mL DMSO + 20 μL substrate, 150 μL buffer, 10 μL renin; 37 °C, 15 min; fluorescence 340/500 nm; mean of triplicate samples
Experimental: Protein isolates from all seven oat varieties and selected synthesised peptides were tested in vitro for renin inhibition activity. The Renin Inhibition Screening Assay (Cambridge BioSciences, Cambridge, UK) was carried out as per the manufacturer’s instructions. Briefly, 10 μL of each sample inhibitor at a concentration of 1 mg/mL dimethyl sulfoxide (DMSO) was added to 20 μL renin substrate, 150 μL assay buffer, and 10 μL renin, in triplicate. The samples were incubated at 37 °C for 15 min, and read with excitation wavelengths of 340 nm and emission wavelengths of 500 nm. Fluorescence was read using a FLUOstar Omega microplate reader (BMG LABTECH GmbH, Offenburg, Germany). The percentage inhibition was calculated using the following equation:% Renin inhibition = 100% Initial activity − Inhibitor × 100/100% Initial activity (1)

[4] = synthesised peptides, 20 μL sample at 1 mg/mL ddH2O + 20 μL substrate, 20 μL enzyme, mean of triplicate samples

Compound | % ACE-I inhibition [1, 4] [%] | other results
C[C@H](CS)C(=O)N1CCC[C@H]1C(=O)O [captopril, reference compound] | – | % ACE-I inhibition ([1]; positive control, triplicate): 97.7% (±23.2%)
FEPL [chemically synthesised peptide; 12S globulin f(53–56), papain] | 48.9 ± 7.8 | –
FLLA [chemically synthesised peptide; 11S globulin/12S globulin f(203–206), papain] | 97 ± 16.2 | –
FPIL [chemically synthesised peptide; 11S globulin f(364–367), ficin] | – | % DPP-IV inhibition [2]: 13.1 ± 3.2%
IFFFL [chemically synthesised peptide; Avenin f(3–7), ficin] | 53 ± 41.2 | % Renin inhibition [3]: 17.1% (±2.6%)
